Measurements: US9611262B2, “Substituted 2-azabicycles and their use as orexin receptor modulators” (JANSSEN PHARMACEUTICA NV, priority 2014, dated 2017)

Legend:
[1] = target: human orexin 2 receptor (Homo sapiens (Human), UniProt O43614); assay: Human orexin 2 receptor radioligand binding ([3H]-EMPA competition); details: HEK293 stably expressing human orexin 2 receptor; 2 nM [3H]-EMPA; averages of 2-20 runs; read-out: hOX2 Ki
How it was run: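 Membranes-free whole HEK293 cells stably expressing human OX2 receptor incubated with [3H]-EMPA and compound (7 concentrations, 0.1 nM–10 μM, ≤0.1% DMSO) for 60 min at room temperature; nonspecific binding with 10 μM almorexant. Filtration and scintillation counting; one-site IC50 converted to Ki using predetermined Kd, triplicates averaged over 2-20 runs.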

[2] = target: rat orexin 1 receptor (Rattus norvegicus, UniProt P56718); assay: Rat orexin 1 receptor radioligand binding (competitive); details: HEK293 cells stably expressing rat orexin 1 receptor; 4 nM radioligand; averages of 2-20 runs; read-out: rOX1 Ki
Method: (§1) The in vitro affinity of the compounds of the invention for the rat/human orexin 1 and human orexin 2 receptors was determined by competitive radioligand binding using [^3H](1-(5-(2-fluoro-phenyl)-2-methyl-thiazol-4-yl)-1-((S)-2-(5-phenyl-(1,3,4)oxadiazol-2-ylmethyl)-pyrrolidin-1-yl)-methanone) (Langmead et al., 2004) and [^3H]EMPA (n-ethyl-2[96-methoxy-pyridin-3-yl)-(toluene-2-sulfonyl)-amino]-N-pyridin-3-ylmethyl acetamide), respectively (Langmead et al., 2004, British Journal of Pharmacology 141:340-346; Malherbe et al., 2004, British Journal of Pharmacology 156:1326-41).
(§2) Data are analyzed using pc-Sandy macro and graphed on Graphpad Prism 5. For analysis, each concentration point is averaged from triplicate values and the averaged values are plotted on Graphpad Prism. The IC50 was determined by applying the following equation (GraphPad Prism 5.0, San Diego) for one site competition where X=log (concentration) and Y=specific binding. Top denotes the total [^3H]— (1-(5-(2-fluoro-phenyl)-2-methyl-thiazol-4-yl)-1-((S)-2-(5-phenyl-(1,3,4)oxadiazol-2-ylmethyl)-pyrrolidin-1-yl)-methanone) binding, bottom denotes the nonspecific [^3H]— (1-(5-(2-fluoro-phenyl)-2-methyl-thiazol-4-yl)-1-((S)-2-(5-phenyl-(1,3,4)oxadiazol-2-ylmethyl)-pyrrolidin-1-yl)-methanone) binding. Graphpad Prism calculates Ki value from IC50 and the pre-determined Kd values for [^3H]— (1-(5-(2-fluoro-phenyl)-2-methyl-thiazol-4-yl)-1-((S)-2-(5-phenyl-(1,3,4)oxadiazol-2-ylmethyl)-pyrrolidin-1-yl)-methanone) and [^3H]-EMPA. The Ki for each compound is then uploaded into 3DX. Each run comprises individual compounds in triplicate. The data in Table 1 and Table 2 represent averages from between 2-20 runs
(§3) Rat and Human Orexin 1 Receptor Radioligand Binding Studies
(§4) Human Embryonic Kidney 293 cells (HEK293) stably expressing rat orexin 1 receptor (Genebank accession number NM_001525) or Chinese ovary cells (CHO) stably expressing human orexin 1 receptor (Genebank accession number […]) were grown to confluency in DMEM (Hyclone, cat # SH30022), 10% FBS, 1× Pen/Strep, 1× sodium pyruvate, 10 mM HEPES, 600 μg/mL G418 and DMEM/F12 (Gibco, Cat #11039), 10% FBS, 1× Pen/Strep, 600 μg/mL G418 media, respectively on 150 cm^2 tissue culture plates, washed with 5 mM EDTA in PBS (HyClone Dulbecco's Phosphate Buffered Saline 1× with Calcium and Magnesium, Cat # SH30264.01, hereafter referred to simply as PBS) and scraped into 50 ml tubes. After centrifugation (2K×G, 5 min at 4° C.), the supernatant was aspirated and the pellets frozen and stored at −80° C. Cells were resuspended in PBS in the presence of 1 tablet of protease inhibitor cocktail (Roche, Cat. #11836145001) per 50 mL. […] Competition binding experiments in 96 well polypropylene plates were performed using [^3H]— (1-(5-(2-fluoro-phenyl)-2-methyl-thiazol-4-yl)-1-((S)-2-(5-phenyl-(1,3,4)oxadiazol-2-ylmethyl)-pyrrolidin-1-yl)-methanone) (Moraveck Corporation, specific activity=35.3 Ci/mmol), diluted to a 10 nM concentration in PBS (4 nM final). Compounds were solubilized in 100% DMSO (Acros Organics, Cat. #61042-1000) and tested over a range of 7 concentrations (from 0.1 nM to 10 μM). The final concentration of DMSO in the reactions is equal to or less than 0.1%. Total and nonspecific binding was determined in the absence and presence of 10 μM almorexant. The total volume of each reaction is 200 μL (20 μL of diluted compounds, 80 μL of [^3H]— (1-(5-(2-fluoro-phenyl)-2-methyl-thiazol-4-yl)-1-((S)-2-(5-phenyl-(1,3,4)oxadiazol-2-ylmethyl)-pyrrolidin-1-yl)-methanone) diluted in PBS and 100 μL of the cell suspension). Reactions were run for 60 min at room temperature and terminated by filtration through GF/C filter plates (PerkinElmer, Cat. #6005174) presoaked in 0.3% polyethylenimine using the cell harvester (PerkinElmer Filtermate). The plates were washed 3 times by aspirating 30 ml PBS through the plates. Plates were dried in 55° C. oven for 60 min, scintillation fluid was added, and the radioactivity was counted on a Topcount (Packard). […]

[3] = target: human orexin 1 receptor (Homo sapiens (Human), UniProt O43613); assay: Human orexin 1 receptor radioligand binding (competitive); details: CHO cells stably expressing human orexin 1 receptor; 4 nM radioligand; averages of 2-20 runs; read-out: hOX1 Ki
human orexin 1 receptor, sequence (O43613 whole entry): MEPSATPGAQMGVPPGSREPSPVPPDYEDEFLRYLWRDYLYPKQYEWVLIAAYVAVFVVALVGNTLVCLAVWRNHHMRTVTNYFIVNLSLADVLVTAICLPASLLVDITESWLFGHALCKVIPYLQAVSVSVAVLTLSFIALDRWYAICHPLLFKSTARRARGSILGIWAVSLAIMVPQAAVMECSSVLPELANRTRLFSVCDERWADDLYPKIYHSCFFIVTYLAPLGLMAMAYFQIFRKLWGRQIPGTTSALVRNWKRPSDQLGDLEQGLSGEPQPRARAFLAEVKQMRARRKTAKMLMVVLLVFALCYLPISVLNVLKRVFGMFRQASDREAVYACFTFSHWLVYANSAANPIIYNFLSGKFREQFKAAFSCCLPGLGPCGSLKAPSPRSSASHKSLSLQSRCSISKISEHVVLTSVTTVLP
Method: as §1, §2, §3, §4

human orexin 2 receptor, sequence (O43614 whole entry): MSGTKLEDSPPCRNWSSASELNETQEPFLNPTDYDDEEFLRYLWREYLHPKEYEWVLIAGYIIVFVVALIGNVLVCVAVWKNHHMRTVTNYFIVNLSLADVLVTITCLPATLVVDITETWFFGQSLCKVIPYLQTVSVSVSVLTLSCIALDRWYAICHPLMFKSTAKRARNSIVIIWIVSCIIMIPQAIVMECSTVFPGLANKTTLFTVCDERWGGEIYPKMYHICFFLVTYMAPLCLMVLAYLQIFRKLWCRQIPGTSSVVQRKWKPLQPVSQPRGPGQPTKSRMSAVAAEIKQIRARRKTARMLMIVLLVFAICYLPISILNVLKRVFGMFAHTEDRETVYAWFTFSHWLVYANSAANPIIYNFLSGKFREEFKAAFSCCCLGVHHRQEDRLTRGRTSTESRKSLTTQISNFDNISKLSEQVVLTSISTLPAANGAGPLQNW

**Q.** How did the Ki [1] turn out when `C[C@@H]1[C@H]2C[C@@H](Oc3ccc(C(F)(F)F)cn3)[C@H](C2)N1C(=O)c1cccc(-c2ccc(F)cc2)c1` [Example 36, (4′-fluoro-[1,1′-biphenyl]-3-yl)((1S,3R,4R,6R)-3-methyl-6-((5-(trifluoromethyl)pyridin-2-yl)oxy)-2-azabicyclo[2.2.1]heptan-2-yl)methanone] was run?
**A.** > 10000 nM

**Q.** What about the Ki [2] of the same compound?
**A.** 845 nM

**Q.** Which Ki [1] does the source give for `C[C@@H]1[C@H]2C[C@@H](Oc3ccc(C(F)(F)F)nc3)[C@H](C2)N1C(=O)c1ccccc1-n1nccn1` (relative stereo) [Example 41, (2-(2H-1,2,3-triazol-2-yl)phenyl)((1S*,3R*,4R*,6R*)-3-methyl-6-((6-(trifluoromethyl)pyridin-3-yl)oxy)-2-azabicyclo[2.2.1]heptan-2-yl)methanone] here?
**A.** > 10000 nM

**Q.** What about the Ki [2] of the same compound?
**A.** 300 nM

**Q.** How did the Ki [1] turn out when `Cc1ccc(-n2nccn2)c(C(=O)N2[C@H](C)[C@H]3C[C@@H](Oc4ccc(C(F)(F)F)nc4)[C@@H]2C3)n1` (relative stereo) [Example 40, (6-methyl-3-(2H-1,2,3-triazol-2-yl)pyridin-2-yl)((1S*,3R*,4R*,6R*)-3-methyl-6-((6-(trifluoromethyl)pyridin-3-yl)oxy)-2-azabicyclo[2.2.1]heptan-2-yl)methanone] was run?
**A.** > 10000 nM

**Q.** And the Ki [2]?
**A.** 544 nM

**Q.** With `C[C@@H]1[C@H]2C[C@@H](Oc3ccc(C(F)(F)F)cn3)[C@H](C2)N1C(=O)c1c(OCCF)ccc2cccnc12` [Example 206, (7-(2-fluoroethoxy)quinolin-8-yl)((1S,3R,4R,6R)-3-methyl-6-((5-(trifluoromethyl)pyridin-2-yl)oxy)-2-azabicyclo[2.2.1]heptan-2-yl)methanone] as the compound, how does the Ki [1] read?
**A.** 286 nM

**Q.** And the Ki [2]?
**A.** 7.4 nM

**Q.** Which results are given for `C[C@@H]1[C@H]2C[C@@H](Oc3ccc(C(F)(F)F)cn3)[C@H](C2)N1C(=O)c1ccccc1-c1cccc(F)n1` [Example 173, [2-(6-fluoro-2-pyridyl)phenyl]-[(1R,2R,4S,5R)-2-methyl-5-[[5-(trifluoromethyl)-2-pyridyl]oxy]-3-azabicyclo[2.2.1]heptan-3-yl]methanone]?
**A.** Ki [3]: 5 nM; Ki [1]: 343 nM

**Q.** For `Cc1ccc(-c2ncccn2)c(C(=O)N2[C@H](C)[C@H]3C[C@@H](Oc4ccc(C(F)F)cn4)[C@@H]2C3)n1` [Example 182, [(1R,2R,4S,5R)-5-[[5-(difluoromethyl)-2-pyridyl]oxy]-2-methyl-3-azabicyclo[2.2.1]heptan-3-yl]-(6-methyl-3-pyrimidin-2-yl-2-pyridyl)methanone], which Ki [1] is on record?
**A.** 95 nM

**Q.** And the Ki [2]?
**A.** 11 nM

**Q.** Which results are given for `C[C@@H]1[C@H]2C[C@@H](Oc3ccc(C(F)(F)F)cn3)[C@H](C2)N1C(=O)c1cc(OCCBr)ccc1-n1nccn1` [Example 204, [5-(2-bromoethoxy)-2-(triazol-2-yl)phenyl]-[(1R,2R,4S,5R)-2-methyl-5-[[5-(trifluoromethyl)-2-pyridyl]oxy]-3-azabicyclo[2.2.1]heptan-3-yl]methanone]?
**A.** Ki [1]: 236 nM; Ki [2]: 71 nM

**Q.** What does the source list for `O=C(c1cc(F)ccc1-c1ncc(F)cn1)N1[C@H](CO)[C@@H]2CC[C@H]1[C@H](Oc1ccc(C(F)(F)F)cn1)C2` [Example 178, [5-fluoro-2-(5-fluoropyrimidin-2-yl)phenyl]-[(1R,2S,4S,5R)-2-(hydroxymethyl)-5-[[5-(trifluoromethyl)-2-pyridyl]oxy]-3-azabicyclo[2.2.2]octan-3-yl]methanone]?
**A.** Ki [1]: > 10000 nM; Ki [2]: 1100 nM

**Q.** `COC[C@@H]1[C@@H]2CC[C@@H]([C@H](Oc3ccc(C(F)(F)F)cn3)C2)N1C(=O)c1nc(C)ccc1-c1ncccn1` [Example 180, [(1R,2S,4S,5R)-2-(methoxymethyl)-5-[[5-(trifluoromethyl)-2-pyridyl]oxy]-3-azabicyclo[2.2.2]octan-3-yl]-(6-methyl-3-pyrimidin-2-yl-2-pyridyl)methanone] was tested. Which Ki [1] did it give?
**A.** 1700 nM

**Q.** And the Ki [2]?
**A.** 32 nM

**Q.** Which results are given for `C[C@@H]1[C@H]2C[C@@H](Oc3ccc(C(F)(F)F)cn3)[C@H](C2)N1C(=O)c1ccccc1-c1cnc(F)cn1` [Example 170, [2-(5-fluoropyrazin-2-yl)phenyl]-[(1R,2R,4S,5R)-2-methyl-5-[[5-(trifluoromethyl)-2-pyridyl]oxy]-3-azabicyclo[2.2.1]heptan-3-yl]methanone]?
**A.** Ki [1]: 1600 nM; Ki [2]: 9 nM

**Q.** With `[2H]C([2H])([2H])[C@]1([2H])[C@H]2C[C@@H](Oc3ccc(C(F)(F)F)cn3)[C@H](C2)N1C(=O)c1cccc(F)c1-n1nccn1` [Example 164, [(1R,2R,4S,5R)-2-deuterio-2-(trideuteriomethyl)-5-[[5-(trifluoromethyl)-2-pyridyl]oxy]-3-azabicyclo[2.2.1]heptan-3-yl]-[3-fluoro-2-(triazol-2-yl)phenyl]methanone] as the compound, how does the Ki [1] read?
**A.** 565 nM

**Q.** What about the Ki [2] of the same compound?
**A.** 5 nM

**Q.** Which results are given for `C[C@@H]1[C@H]2C[C@@H](Oc3ccc(C(F)(F)F)cn3)[C@H](C2)N1C(=O)c1cc2ccccc2nc1OCCO` [Example 203, [2-(2-hydroxyethoxy)-3-quinolyl]-[(1R,2R,4S,5R)-2-methyl-5-[[5-(trifluoromethyl)-2-pyridyl]oxy]-3-azabicyclo[2.2.1]heptan-3-yl]methanone]?
**A.** Ki [1]: > 10000 nM; Ki [2]: 60 nM

**Q.** With `C[C@@H]1[C@H]2C[C@@H](Oc3ccc(C(F)(F)F)cn3)[C@H](C2)N1C(=O)c1cc2ccccc2nc1OCCF` [Example 205, [2-(2-fluoroethoxy)-3-quinolyl]-[(1R,2R,4S,5R)-2-methyl-5-[[5-(trifluoromethyl)-2-pyridyl]oxy]-3-azabicyclo[2.2.1]heptan-3-yl]methanone] as the compound, how does the Ki [1] read?
**A.** 5400 nM

**Q.** And the Ki [2]?
**A.** 22 nM

**Q.** Which results are given for `C[C@@H]1[C@H]2C[C@@H](Oc3ccc(C(F)(F)F)c(F)n3)[C@H](C2)N1C(=O)c1ccccc1-c1ncccn1` [Example 219, (2-(pyrimidin-2-yl)phenyl)((1S,3R,4R,6R)-3-methyl-6-((6-fluoro-5-(trifluoromethyl)pyridin-2-yl)oxy)-2-azabicyclo[2.2.1]heptan-2-yl)methanone]?
**A.** Ki [1]: 1010 nM; Ki [2]: 4 nM

**Q.** For `O=C(c1c(F)cccc1-n1nccn1)N1[C@H](CO)[C@@H]2CC[C@H]1[C@H](Oc1ccc(C(F)(F)F)cn1)C2` [Example 177, [2-fluoro-6-(triazol-2-yl)phenyl]-[(1R,2S,4S,5R)-2-(hydroxymethyl)-5-[[5-(trifluoromethyl)-2-pyridyl]oxy]-3-azabicyclo[2.2.2]octan-3-yl]methanone], which Ki [1] is on record?
**A.** > 10000 nM

**Q.** What about the Ki [2] of the same compound?
**A.** 1150 nM

**Q.** How did the Ki [1] turn out when `COC[C@@H]1[C@@H]2CC[C@@H]([C@H](Oc3ccc(C(F)(F)F)cn3)C2)N1C(=O)c1ccccc1-c1ncccn1` [Example 181, [(1R,2S,4S,5R)-2-(methoxymethyl)-5-[[5-(trifluoromethyl)-2-pyridyl]oxy]-3-azabicyclo[2.2.2]octan-3-yl]-(2-pyrimidin-2-ylphenyl)methanone] was run?
**A.** > 10000 nM

**Q.** And the Ki [2]?
**A.** 87 nM
